Measured values from US6613745B1, “Therapeutic molecules derived from snake venom” (National University of Singapore, priority 1997, dated 2003).
“Also recorded” adds a separate entry of the source. Peptide text beside a SMILES is read from it.

Test system: chick biventer muscle
Test: Chick biventral experiment: contractile (twitch) responses evoked by electrical field stimulation
Parameters: species or system Gallus domesticus

`C[C@@H](O)[C@H](NC(=O)[C@@H]1CCCN1C(=O)[C@H](Cc1ccccc1)NC(=O)[C@@H]1CCCN1C(=O)[C@@H](N)CC(N)=O)C(=O)N[C@@H](Cc1c[nH]c2ccccc12)C(=O)N[C@@H](CCCNC(=N)N)C(=O)N[C@@H](CCCCN)C(=O)N[C@@H](CCCNC(=N)N)C(=O)N1CCC[C@H]1C(=O)NCC(=O)O` [synthesized peptide, Asn-Pro-Phe-Pro-Thr-Trp-Arg-Lys-Arg-Pro-Gly] (H-NPFPTWRKRPG-OH) was tested, and the “contractile (twitch) response of chick biventer evoked by electrical field stimulation” value (10 μg peptide added, EFS 25 V, 5 Hz×10s, 1 ms pulse width, every 100s, FIG. 1, listed as analgesic peptide) was “no change; also recorded: no effect” and the “neurotoxic effect on the neuromuscular junction” value (10 μg peptide, concluded from FIG. 1) was “no neurotoxic effect”.
